{"source": "patent US20250057963A1", "about": "“DISCOVERY OF PIPERLONGUMINE AS A NOVEL E3 LIGASE LIGAND” (University of Florida Research Foundation, Incorporated, priority 2021, published 2025)", "key": {"CDK9 [1]": {"target": "T1, CDK9 (Homo sapiens, UniProt P50750)", "T1 sequence (P50750 whole entry)": "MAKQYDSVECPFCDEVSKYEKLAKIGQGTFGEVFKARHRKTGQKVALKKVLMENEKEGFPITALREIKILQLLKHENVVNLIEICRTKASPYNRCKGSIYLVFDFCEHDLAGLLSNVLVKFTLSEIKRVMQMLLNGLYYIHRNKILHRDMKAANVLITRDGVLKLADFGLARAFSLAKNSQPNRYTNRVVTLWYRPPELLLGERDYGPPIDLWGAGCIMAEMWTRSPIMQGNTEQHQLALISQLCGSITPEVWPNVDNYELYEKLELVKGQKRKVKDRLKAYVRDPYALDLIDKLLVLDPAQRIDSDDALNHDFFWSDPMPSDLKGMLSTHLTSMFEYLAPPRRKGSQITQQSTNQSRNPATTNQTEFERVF", "experiment": "CDK9 degradation in 293T and K562 cells (immunoblot)", "type": "cell-based", "design": "endogenous in cells; host or cells: MOLT4, 293T, K562, NCI-H1299, LNCaP", "protocol": "Human T-ALL MOLT4 (Cat. No. CRL-1582), K562 (Cat. No. CCL-243), NCI-H1299 (Cat. No. CRL-5803), NCI-H2228 (Cat. No. CRL-5935), LNCaP (Cat. No. CRL-1740), 22RV1 (Cat. No. CRL-2505), PC3 (Cat. No. CRL-1435), DU145 (Cat. No. HTB-81), and epithelial kidney HEK 293T (293T, Cat. No. ACS-4500) cell lines were recently purchased from American Type Culture Collection (ATCC, Manassas, VA, USA). MOLT4, K562, NCI—H-1299, NCI-H2228, LNCap, and 22RV 1 cell lines were cultured in RPMI 1640 medium (Cat No. 22400-089, Thermo Fisher Scientific, Waltham, MA, USA) supplemented with 10% (v/v) heat-inactivated fetal bovine serum (FBS, Cat. No. S11150H, Atlanta Biologicals, Flowery Branch, GA, USA), 100 U/mL penicillin and 100 pig/mL streptomycin (Pen-Strep, Cat. No. 15140122, Thermo Fisher Scientific). PC3 cells were cultured in complete F—12K medium (Kaighn's modification of Ham's F-12 medium, Cat. No. 30-2004, ATCC) supplemented with 10% (v/v) heat-inactivated FBS, 100 U/mL penicillin, and 100 μg/mL streptomycin. DU145 cells were cultured in complete Eagle's Minimum Essential Medium (EMEM, Cat. No. 30-2003, ATCC) supplemented with 10% (v/v) heat-inactivated FBS, 100 U/mL penicillin, and 100 μg/mL streptomycin. 293T cells were cultured in complete Dulbecco's modified Eagle medium (DMEM, Cat. No. 12430054, Thermo Fisher Scientific) with 10% (v/v) heat-inactivated FBS, 100 U/mL penicillin, and 100 μg/mL streptomycin. All the cell lines were maintained in a humidified incubator at 37° C. and 5% CO2.\nCells were collected and lysed in RIPA lysis buffer (Cat. #BP-115DG, Boston Bio Products, Ashland, MA, USA) supplemented with protease and phosphatase inhibitor cocktails (Cat. #PPC1010, Sigma-Aldrich, St. Louis, MO, USA). Protein samples were made and immunoblotting was performed as described previously (Khan et al., 2019; Lv et al., 2021). […]\nImmunoblot data were quantified using the ImageJ (v 1.53a) software from NIH. […]"}, "CDK9 [2]": {"target": "T1, CDK9", "experiment": "TMT-based global proteomics in MOLT4 cells", "type": "cell-based", "design": "endogenous in cells; host or cells: MOLT4", "source_text": "Sample Preparation and LC-MS/MS analysis. Total protein from cell pellets was reduced, alkylated, and purified by chloroform/methanol extraction prior to digestion with sequencing grade modified porcine trypsin (Cat. No. V5111, Promega). Tryptic peptides were labeled using tandem mass tag isobaric labeling reagents (Cat. No. A34808, ThermoFisher) following the manufacturer's instructions and combined into one 11-plex sample group. The labeled peptide multiplex was separated into 46 fractions on a 100×1.0 mm Acquity BEH C18 column (Waters) using an UltiMate 3000 UHPLC system (Thermo) with a 50 min gradient from 99:1 to 60:40 bufferA:B (Buffer A: 0.1% formic acid, 0.5% acetonitrile; Buffer B: 0.1% formic acid, 99.9% acetonitrile. Both buffers adjusted to pH 10 with ammonium hydroxide for offline separation) ratio under basic pH conditions, and then consolidated into 18 super-fractions. […]\nData processing and analysis. Proteins were identified and MS3 reporter ions quantified using MaxQuant (version 2.0.3.0; Max Planck Institute) against the Homo sapiens UniprotKB database (March 2021) with a parent ion tolerance of 3 ppm, a fragment ion tolerance of 0.5 Da, and a reporter ion tolerance of 0.003 Da. Scaffold Q+S (Proteome Software) was used to verify MS/MS based peptide and protein identifications (protein identifications were accepted if they could be established with less than 1.0% false discovery and contained at least 2 identified peptides; protein probabilities were assigned by the Protein Prophet algorithm (Nesvizhskii et al., 2003) and to perform reporter ion-based statistical analysis. Protein TMT MS3 reporter ion intensity values were assessed for quality using ProteiNorm for a systematic evaluation of normalization methods (Graw et al., 2020). Cyclic loess normalization (Ritchie et al., 2015) was utilized since it had the highest intragroup correlation and the lowest variance amongst the samples. […]"}}, "note": "Entries after “also recorded” stand apart in the source; their conditions may differ.", "data": [{"smiles": "COc1cc(/C=C/C(=O)N2CCC=CC2=O)cc(OC)c1OCCN1CCN(C(=O)CN2CCC(C(=O)Nc3ncc(SCc4ncc(C(C)(C)C)o4)s3)CC2)CC1", "note": "[compound 955, (E)-N-(5-(((5-(tert-butyl)oxazol-2-yl)methyl)thio)thiazol-2-yl)-1-(2-(4-(2-(2,6-dimethoxy-4-(3-oxo-3-(6-oxo-3,6-dihydropyridin-1(2H)-yl)prop-1-en-1-yl)phenoxy)ethyl)piperazin-1-yl)-2-oxoethyl)piperidine-4-carboxamide]", "values": [{"measurement": "dependence of 955-induced CDK9 degradation on the UPS", "setting": "CDK9 [1]; 293T and K562 cells, MG132, bortezomib, MLN4924 pre-treatment", "result": "UPS dependent manner"}, {"measurement": "CDK9 degradation in 293T cells", "setting": "CDK9 [1]; 293T cells, 0.1 μM or 1 μM 955", "result": "time and dose dependent manner"}, {"measurement": "CDK9 degradation in K562 cells", "setting": "CDK9 [1]; K562 cells, 0.1 μM 955", "result": "time and dose dependent manner"}, {"measurement": "proteins degraded or downregulated after short treatment (global proteome)", "setting": "CDK9 [2]; 0.1 μM 955, 1 hour", "result": "only degraded CDK9 and CDK10 and downregulated one downstream protein FYTTD1"}, {"measurement": "CDK9 protein level (global proteome)", "setting": "CDK9 [2]; 0.1 μM 955 for 1 h and 6 h, 1 μM SNS-032 for 6 h", "result": "reduced the protein level of CDK9; also recorded: significant reduction of CDK9"}]}]}
